Experimental data reported in patent publication US11149054B2, “Oxysterols and methods of use thereof” (Sage Therapeutics, Inc., priority 2016, dated 2021).
Like-named read-outs stand apart in the source and are kept apart here.

Key:
[1] = target: GluN2B glutamate receptors (Homo sapiens (Human), UniProt Q05586+Q13224); assay: Whole-cell patch clamp of mammalian cells (Ionworks Barracuda), positive allosteric modulation, GluN2B; assay type: cell-based; conditions: for Emax: % potentiation of current elicited with EC20 L-glutamate and 30 μM glycine, read-out: Avg Emax 2B (%)
Outline: (§1)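 Perforated-patch whole-cell recording, holding −70 mV, −40 mV during application; Cs-based internal pH 7.2, external with 5 mM CaCl2 pH 7.4. Test article pre-applied alone 5 min, then co-applied with EC20 L-glutamate plus 30 μM glycine. EC50 from Hill fit of % activation over the EC20 current.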

[2] = target: GlunN1/GluN2A glutamate receptors (Homo sapiens (Human), UniProt Q05586+Q12879); assay: Whole-cell patch clamp of mammalian cells (Ionworks Barracuda), positive allosteric modulation, GluN1/GluN2A; assay type: cell-based; conditions: for Emax: % potentiation of current elicited with EC20 L-glutamate and 30 μM glycine, read-out: Avg Emax 2A (%)
Outline: as §1

[3] = HEK293 cells, co-application with EC20 L-glutamate and 30 μM glycine, 8-point concentration-response, read-out: Avg EC50 2A
[4] = co-application with EC20 L-glutamate and 30 μM glycine, 8-point concentration-response, read-out: Avg EC50 2B

GluN2B glutamate receptors, sequence (Q13224 27-1484, other chains not shown): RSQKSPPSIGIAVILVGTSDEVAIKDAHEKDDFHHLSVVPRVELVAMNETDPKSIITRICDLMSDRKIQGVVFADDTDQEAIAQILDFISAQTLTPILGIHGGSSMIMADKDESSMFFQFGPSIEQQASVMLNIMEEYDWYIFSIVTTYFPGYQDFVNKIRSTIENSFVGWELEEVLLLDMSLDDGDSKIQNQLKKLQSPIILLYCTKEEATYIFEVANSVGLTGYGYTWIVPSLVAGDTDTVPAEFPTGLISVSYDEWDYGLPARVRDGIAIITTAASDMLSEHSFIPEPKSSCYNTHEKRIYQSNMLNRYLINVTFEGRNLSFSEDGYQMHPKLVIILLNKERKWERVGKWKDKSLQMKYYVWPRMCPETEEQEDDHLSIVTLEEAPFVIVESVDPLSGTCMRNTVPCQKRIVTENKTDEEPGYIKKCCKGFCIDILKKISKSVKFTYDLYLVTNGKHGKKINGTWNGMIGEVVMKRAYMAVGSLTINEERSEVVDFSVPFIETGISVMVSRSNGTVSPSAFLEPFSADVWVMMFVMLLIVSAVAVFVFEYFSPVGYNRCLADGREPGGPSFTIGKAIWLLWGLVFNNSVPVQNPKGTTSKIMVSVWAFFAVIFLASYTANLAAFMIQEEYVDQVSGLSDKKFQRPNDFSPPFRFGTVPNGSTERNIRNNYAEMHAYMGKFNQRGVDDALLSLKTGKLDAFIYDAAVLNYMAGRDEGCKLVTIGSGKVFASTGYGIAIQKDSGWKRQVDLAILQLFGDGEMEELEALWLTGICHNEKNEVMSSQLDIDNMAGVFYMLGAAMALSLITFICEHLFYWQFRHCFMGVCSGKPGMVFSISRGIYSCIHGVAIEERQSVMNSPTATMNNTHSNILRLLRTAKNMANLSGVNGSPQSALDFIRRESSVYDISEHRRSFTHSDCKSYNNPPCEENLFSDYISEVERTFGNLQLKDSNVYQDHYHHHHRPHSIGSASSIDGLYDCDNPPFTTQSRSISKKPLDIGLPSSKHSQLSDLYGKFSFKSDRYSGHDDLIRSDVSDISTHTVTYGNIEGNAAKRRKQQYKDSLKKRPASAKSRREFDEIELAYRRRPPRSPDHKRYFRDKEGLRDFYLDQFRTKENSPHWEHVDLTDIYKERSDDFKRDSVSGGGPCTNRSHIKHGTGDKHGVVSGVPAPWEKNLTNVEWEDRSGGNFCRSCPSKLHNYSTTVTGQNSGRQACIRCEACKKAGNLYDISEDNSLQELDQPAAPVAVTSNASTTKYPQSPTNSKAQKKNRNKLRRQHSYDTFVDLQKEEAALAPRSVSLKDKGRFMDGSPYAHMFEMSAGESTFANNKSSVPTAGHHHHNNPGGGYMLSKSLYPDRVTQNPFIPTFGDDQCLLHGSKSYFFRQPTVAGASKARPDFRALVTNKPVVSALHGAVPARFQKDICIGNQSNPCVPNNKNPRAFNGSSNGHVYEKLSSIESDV
GlunN1/GluN2A glutamate receptors, sequence (Q12879 23-1464, other chains not shown): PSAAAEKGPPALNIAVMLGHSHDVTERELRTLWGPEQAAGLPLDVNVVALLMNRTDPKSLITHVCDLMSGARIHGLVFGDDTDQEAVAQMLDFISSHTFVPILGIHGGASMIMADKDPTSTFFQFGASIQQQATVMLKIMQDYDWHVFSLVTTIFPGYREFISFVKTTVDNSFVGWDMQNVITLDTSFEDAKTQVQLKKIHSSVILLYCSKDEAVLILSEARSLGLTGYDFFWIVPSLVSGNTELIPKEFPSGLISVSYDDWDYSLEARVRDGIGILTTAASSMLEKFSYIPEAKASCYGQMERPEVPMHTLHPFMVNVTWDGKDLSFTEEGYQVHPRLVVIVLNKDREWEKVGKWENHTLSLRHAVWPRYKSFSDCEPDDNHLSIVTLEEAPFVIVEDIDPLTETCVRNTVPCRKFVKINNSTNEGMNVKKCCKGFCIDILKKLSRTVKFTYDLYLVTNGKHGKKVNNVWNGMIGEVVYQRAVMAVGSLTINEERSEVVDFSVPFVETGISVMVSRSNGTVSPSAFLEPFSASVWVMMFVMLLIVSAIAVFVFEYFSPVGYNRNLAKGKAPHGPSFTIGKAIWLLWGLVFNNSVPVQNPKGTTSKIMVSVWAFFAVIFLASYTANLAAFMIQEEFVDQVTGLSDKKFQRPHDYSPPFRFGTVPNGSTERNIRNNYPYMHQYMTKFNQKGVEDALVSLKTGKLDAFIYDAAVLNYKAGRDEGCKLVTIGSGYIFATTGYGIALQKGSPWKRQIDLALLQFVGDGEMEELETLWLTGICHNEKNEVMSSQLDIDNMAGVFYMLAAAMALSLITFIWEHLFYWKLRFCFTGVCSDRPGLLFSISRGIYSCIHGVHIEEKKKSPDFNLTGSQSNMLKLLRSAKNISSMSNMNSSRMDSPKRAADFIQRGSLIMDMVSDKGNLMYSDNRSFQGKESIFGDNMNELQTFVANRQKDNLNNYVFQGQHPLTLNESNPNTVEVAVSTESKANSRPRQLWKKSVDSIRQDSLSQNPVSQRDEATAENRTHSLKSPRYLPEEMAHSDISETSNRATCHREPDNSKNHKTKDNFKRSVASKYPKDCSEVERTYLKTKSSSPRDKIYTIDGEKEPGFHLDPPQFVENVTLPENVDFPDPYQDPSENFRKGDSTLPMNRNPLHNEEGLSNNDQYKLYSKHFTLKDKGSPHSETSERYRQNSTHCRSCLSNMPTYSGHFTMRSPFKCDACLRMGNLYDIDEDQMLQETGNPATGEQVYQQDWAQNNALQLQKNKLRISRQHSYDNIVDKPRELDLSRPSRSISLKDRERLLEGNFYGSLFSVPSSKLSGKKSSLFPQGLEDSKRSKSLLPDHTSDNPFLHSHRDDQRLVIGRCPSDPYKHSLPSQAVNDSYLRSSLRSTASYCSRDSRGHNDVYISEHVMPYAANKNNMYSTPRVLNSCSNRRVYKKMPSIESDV

Row | SMILES | EC50 [1] | Emax [1] | EC50 [2] | Emax ([2]; HEK293 cells) | EC50 [2, 3] | EC50 [1, 4]
1 | C[C@H](CCC(O)C(F)(F)F)[C@H]1CC[C@H]2[C@@H]3CC[C@H]4C[C@](O)(C(F)(F)F)CC[C@]4(C)[C@H]3CC[C@]12C (some centres unmarked) [Compound 2918] | 339 nM | 506% | 298 nM | 532% | – | –
2 | C[C@H](CC[C@H](O)C1CCC1)[C@H]1CC[C@H]2[C@@H]3CC[C@H]4C[C@](O)(C(F)(F)F)CC[C@]4(C)[C@H]3CC[C@]12C [7−A] | 187 nM | 431% | 248 nM | 544% | – | –
3 | CC[C@]1(O)CC[C@@]2(C)C(=CC[C@H]3[C@@H]4CC[C@H]([C@H](C)CC[C@@H](O)c5cccc(C#N)c5)[C@@]4(C)CC[C@@H]32)C1 [Compound 6997] | 414 nM | 315% | 373 nM | 327% | – | –
4 | CC(C)[C@@H](O)CC[C@@H](C)[C@H]1CC[C@H]2[C@@H]3CC[C@H]4C[C@](O)(C(F)(F)F)CC[C@]4(C)[C@H]3CC[C@]12C [Compound 2A] | 339 nM | – | – | 653% | 158 nM | –
5 | CO[C@H]1CC[C@](O)(CC[C@@H](C)[C@H]2CC[C@H]3[C@@H]4CC[C@H]5C[C@](O)(C(F)(F)F)CC[C@]5(C)[C@H]4CC[C@]23C)CC1 [Compound 4585] | 166 nM | 123% | 215 nM | 72.2% | – | –
6 | CC[C@]1(O)CC[C@H]2C(=CC[C@@H]3[C@@H]2CC[C@]2(C)[C@@H]([C@H](C)CCC[C@H](O)C(C)C)CC[C@@H]32)C1 [Compound 10115] | – | 226% | – | 192% | 556 nM | 458 nM
7 | CC[C@]1(O)CC[C@@]2(C)C(=CC[C@H]3[C@@H]4CC[C@H]([C@H](C)CC[C@@H](O)c5cccnc5)[C@@]4(C)CC[C@@H]32)C1 [Compound 6459] | 909 nM | 184% | 1330 nM | 156% | – | –
8 | C[C@H](CCC(C)(C)O)[C@H]1CC[C@H]2[C@@H]3CC=C4C[C@](O)(C(F)(F)F)CC[C@]4(C)[C@H]3CC[C@]12C [Compound 1839] | – | 568% | – | 493% | 295 nM | –
9 | CC[C@]1(O)CC[C@H]2[C@@H](CC[C@@H]3[C@@H]2CC[C@]2(C)[C@@H]([C@H](C)CCC4(O)CCC(C)(C)CC4)CC[C@@H]32)C1 [Compound 8963] | – | 55.9% | – | 8.4% | > 10000 nM | > 10000 nM
10 | C[C@H](CC[C@H](O)C1CCCCC1)[C@H]1CC[C@H]2[C@@H]3CC[C@H]4C[C@](O)(C(F)(F)F)CC[C@]4(C)[C@H]3CC[C@]12C [Compound 4155] | 612 nM | 198% | 442 nM | 164% | – | –
11 | CC[C@]1(O)CC[C@@]2(C)C(=CC[C@H]3[C@@H]4CC[C@H]([C@H](C)CC[C@H](O)c5ccccc5F)[C@@]4(C)CC[C@@H]32)C1 (single isomer, unassigned) [Compound 7281] | 303 nM | – | 248 nM | – | – | –
12 | CC[C@]1(O)CC[C@@]2(C)C(=CC[C@H]3[C@@H]4CC[C@H]([C@H](C)CC[C@@H](O)c5ccccc5C#N)[C@@]4(C)CC[C@@H]32)C1 [Compound 7399] | 1580 nM | 180% | 696 nM | 150% | – | –
13 | CC[C@]1(O)CC[C@@]2(C)C(=CC[C@H]3[C@@H]4CC[C@H]([C@H](C)CC[C@H](O)c5ccccc5)[C@@]4(C)CC[C@@H]32)C1 [Compound 961] | 180 nM | 97.4% | 617 nM | 138% | – | –
14 | CC(C)[C@H](O)CC[C@@H](C)[C@H]1CC[C@H]2[C@@H]3CC[C@H]4C[C@@](C)(O)CC[C@@H]4[C@H]3CC[C@]12C [Compound 1B75] | – | 233% | – | 279% | – | –
15 | CC[C@]1(O)CC[C@H]2C(=CC[C@@H]3[C@@H]2CC[C@]2(C)[C@@H]([C@H](C)CCC[C@@H](O)C(F)(F)F)CC[C@@H]32)C1 [Compound 10456] | – | 266% | – | 231% | 240 nM | 209 nM
16 | CC[C@]1(O)CC[C@@]2(C)[C@@H](CC[C@@H]3[C@@H]2CC[C@]2(C)[C@@H]([C@H](C)CC[C@H](O)c4cccnc4)CC[C@@H]32)C1 [Compound 6754] | – | 38.8% | – | 22.3% | > 10000 nM | > 10000 nM
17 | C[C@H](CCC1(O)CCC(C)(C)CC1)[C@H]1CC[C@H]2[C@@H]3CC[C@@H]4C[C@](O)(C(F)(F)F)CC[C@]4(C)[C@H]3C(=O)C[C@]12C [Compound 5294] | – | 13.9% | – | 32.4% | – | –
18 | CC[C@]1(O)CC[C@H]2C(=CC[C@@H]3[C@@H]2CC[C@]2(C)[C@@H]([C@H](C)CC[C@]4(O)CCOC4)CC[C@@H]32)C1 [Compound 8603] | 75.1 nM | – | 135 nM | – | – | –
19 | C[C@H](CCC[C@H](O)C(C)(C)C)[C@H]1CC[C@H]2[C@@H]3CC[C@H]4C[C@](O)(C(F)(F)F)CC[C@]4(C)[C@H]3CC[C@]12C [Compound 12156] | – | 111% | – | 43.2% | – | –
20 | C[C@H](O)CC[C@@H](C)[C@H]1CC[C@H]2[C@@H]3CC[C@H]4C[C@](O)(C(F)(F)F)CC[C@]4(C)[C@H]3CC[C@]12C [Compound 6] | 733 nM | – | 248 nM | – | – | –
21 | CC(C)[C@H]1CC[C@@](O)(CC[C@@H](C)[C@H]2CC[C@H]3[C@@H]4CC[C@H]5C[C@](O)(C(F)(F)F)CC[C@]5(C)[C@H]4CC[C@]23C)CC1 [Compound 4258] | 640 nM | 242% | 1030 nM | 184% | – | –
22 | C[C@H](CCC1(O)CCC(C)(C)CC1)[C@H]1CC[C@H]2[C@@H]3CC=C4C[C@](O)(C(F)(F)F)CC[C@]4(C)[C@H]3CC[C@]12C [Compound 4799] | 760 nM | 32.8% | > 10000 nM | 36.1% | – | –
23 | CC[C@]1(O)CC[C@H]2[C@@H](CC[C@@H]3[C@@H]2CC[C@]2(C)[C@@H]([C@H](C)CCC(O)C(C)C)CC[C@@H]32)C1 (some centres unmarked) [Compound 476] | 189 nM | 399% | 406 nM | 811% | – | –
24 | CC(C)C(O)CC[C@@H](C)[C@H]1CC[C@H]2[C@@H]3CC[C@H]4C[C@](O)(C(F)(F)F)CC[C@]4(C)[C@H]3CC[C@]12C (some centres unmarked) [Compound 2] | 147 nM | 605% | – | 709% | – | –
25 | CC[C@]1(O)CC[C@H]2[C@@H](CC[C@@H]3[C@@H]2CC[C@]2(C)[C@@H]([C@H](C)CC[C@H](O)C(C)C)CC[C@@H]32)C1 [Compound 4A77] | – | 254% | – | 382% | 427 nM | 285 nM
26 | CC[C@]1(O)CC[C@@]2(C)C(=CC[C@H]3[C@@H]4CC[C@H]([C@H](C)CC[C@H](O)c5cccnc5)[C@@]4(C)CC[C@@H]32)C1 [Compound 6458] | 929 nM | 79.4% | > 10000 nM | 30.9% | – | –
